Assay results: patent publication US6825236B2, “Colchicine derivatives” (California Pacific Medical Center, priority 2003, dated 2004)

Test system: HCT116
Experiment: Cell colony formation assay
Type: cell-based
Settings: 72 hours with drug, colonies counted after 7 days
Method: This example provides directions for growing cells and testing compounds of the invention for their effect on the growth of the cells. All cells were purchased from DCTDC Tumor Repository, NCI, NIH.
Cell Colony Formation Assay
Four hundred cells (HCT 116, PC-3) or five hundred cells (VM46) were plated in 60 mm Petri dishes containing 2.7 ml of medium (modified McCoy's 5a medium) containing 10% fetal bovine serum and 100 units/ml penicillin and […] streptomycin. The cells were incubated in a CO2 incubator at 37° C. for 5 hours for attachment to the bottom of Petri dishes. Drugs were made fresh in medium at ten times the final concentration, and then 0.3 ml of this stock solution was added to the 2.7 ml of medium in the dish. The cells were then incubated with drugs for 72 hours at 37° C. At the end of the incubation the drug-containing media were decanted, the dishes were rinsed with 4 ml of Hank's Balance Salt Solution (HBSS), 5 ml of fresh medium was added, and the dishes were returned to the incubator for colony formation. The cell colonies were counted using colony counter after incubation for 7 days for HCT116 cells and PC-3 cells and 8 days for VM46 cells, respectively.
Values of ID50 (the drug concentration producing 50% inhibition of colony formation) may be determined for each tested compound. The directions described in this example may be used in other cells, such as DU-145.

Structure (SMILES)	Survival (%) of HCT116 (10 nM)	Survival (%) of HCT116 (100 nM)	Survival (%) of HCT116 (1 nM)
COc1cc2c(c(OC)c1OC)-c1ccc(SC)c(=O)cc1C(NC(=O)COc1c(F)c(F)c(F)c(F)c1F)CC2 (stereo not shown) [Compound 000912, N-Deacetyl-N-(2,3,4,5,6-pentafluorophenoxyacetyl)thiocolchicine]	100%	0.50%	–
COc1cc2c(c(OC)c1OC)-c1ccc(SC)c(=O)cc1C(NC(=O)COc1ccc(C#N)c(F)c1)CC2 (stereo not shown) [Compound 001106, N-Deacetyl-N-(3-fluoro-4-cyanophenoxyacetyl)thiocoichicine]	98.51%	0%	–
COc1cc2c(c(OC)c1OC)-c1ccc(SC)c(=O)cc1C(NC(=O)CCN1C(=O)c3ccccc3C1=O)CC2 (stereo not shown) [Compound 000925, N-Deacetyl-N-(3-phthalimidopropionyl)thiocolchicine]	98.67%	0%	–
COc1cc2c(c(OC)c1OC)-c1ccc(SC)c(=O)cc1C(NC(=O)Cn1cnnn1)CC2 (stereo not shown) [Compound 000918, N-Deacetyl-N-(1H-tetrazole-1-acetyl)thiocolchicine]	–	13.61%	–
COc1cc2c(c(OC)c1OC)-c1ccc(SC)c(=O)cc1C(NC(=O)CCN1CCN(c3cccc(C(F)(F)F)c3)CC1)CC2 (stereo not shown) [Compound 001227, N-Deacetyl-N-(3-(4-[3-trifluoromethylphenyl]piperazinyl)propionyl)thiocolchicine]	100%	0%	–
COc1cc2c(c(OC)c1OC)-c1ccc(SC)c(=O)cc1C(NC(=O)COc1ccc(OC(F)(F)F)cc1)CC2 (stereo not shown) [Compound 001213, N-Deacetyl-N-(4-trifluoromethoxyphenoxyacetyl)thiocolchicine]	–	62.56%	–
COc1cc2c(c(OC)c1OC)-c1ccc(SC)c(=O)cc1C(NC(=O)c1ccc3c(c1)C(=O)c1ccccc1C3=O)CC2 (stereo not shown) [Compound 000908, N-Deacetyl-N-(anthraquinone-2-carbonyl)thiocolchicine]	100%	0%	–
COc1cc2c(c(OC)c1OC)-c1ccc(SC)c(=O)cc1C(NC(=O)CCc1cccnc1)CC2 (stereo not shown) [Compound 000901, N-Deacetyl-N-(3-pyridinepropionyl)thiocolchicine]	61.60%	0%	–
COc1cc2c(c(OC)c1OC)-c1ccc(SC)c(=O)cc1[C@@H](NC(=O)COc1cc(C(F)(F)F)cc(C(F)(F)F)c1)CC2 [Compound 001207, N-Deacetyl-N-(3,5-di-trifluoromethylphenoxyacetyl)thiocolchicine]	–	3.10%	–
COc1cc2c(c(OC)c1OC)-c1ccc(SC)c(=O)cc1[C@@H](NC(=O)c1cn(C)c3nc(C)ccc3c1=O)CC2 [Compound 000920, N-Deacetyl-N-(1,7-dimethylnaphthyridin-4-one-3-carboxy)thiocolchicine]	–	95.68%	–
COc1cc2c(c(OC)c1OC)-c1ccc(SC)c(=O)cc1C(NC(=O)Cn1cc(C)c(=O)[nH]c1=O)CC2 (stereo not shown) [Compound 000905, N-Deacetyl-N-(thymine-1-acetyl)thiocolchicine]	–	96.66%	–
COc1cc2c(c(OC)c1OC)-c1ccc(SC)c(=O)cc1[C@@H](NC(C)=O)CC2 [Thiocolchicine, thiocolchicine, reference compound]	0%	0%	100%
COc1cc2c(c(OC)c1OC)-c1ccc(SC)c(=O)cc1[C@@H](NC(=O)COc1ccc([N+](=O)[O-])c(C(F)(F)F)c1)CC2 [Compound 001107, N-Deacetyl-N-(3-trifluoromethyl-4-nitropbenoxyacetyl)thiocolchicine]	–	100%	–
CCC(=C(CC)c1ccc(OCC(=O)NC2CCc3cc(OC)c(OC)c(OC)c3-c3ccc(SC)c(=O)cc32)cc1)c1ccc(OCC(=O)NC2CCc3cc(OC)c(OC)c(OC)c3-c3ccc(SC)c(=O)cc32)cc1 (stereo not shown) [Compound 000927, Dimer of N-Deacetylthiocolchicine]	100%	0%	–
COc1cc2c(c(OC)c1OC)-c1ccc(SC)c(=O)cc1C(NC(=O)N1c3ccccc3Sc3ccccc31)CC2 (stereo not shown) [Compound 000928, N-Deacetyl-N-(phenothiazin-10-ylcarbonyl)thiocolchicine]	–	100%	–
COc1cc2c(c(OC)c1OC)-c1ccc(SC)c(=O)cc1C(NC(=O)COc1ccnc3ccccc13)CC2 (stereo not shown) [Compound 001201, N-Deacetyl-N-(quinoline-4-oxyacetyl)thiocolchicine]	–	95.07%	–
COc1cc2c(c(OC)c1OC)-c1ccc(SC)c(=O)cc1C(NC(=O)COc1c(I)cc(C#N)cc1I)CC2 (stereo not shown) [Compound 001229, N-Deacetyl-N-(2,6-diiodo-4-cyanophenoxyacetyl)thiocolchicine]	100%	0%	–
COc1cc2c(c(OC)c1OC)-c1ccc(SC)c(=O)cc1C(NC(=O)C1CCCN1C(=O)OC(C)(C)C)CC2 (stereo not shown) [Compound 000915, N-Deacetyl-N-(1-t-butoxycarbonyl-2-pyrrolidinecarbonyl)thiocolchicine]	–	70.12%	–
COc1cc2c(c(OC)c1OC)-c1ccc(SC)c(=O)cc1C(NC(=O)c1ccc(N3C(=O)c4ccccc4C3=O)cc1)CC2 (stereo not shown) [Compound 001114, N-Deacetyl-N-(4-phthalimidobenzoyl)thiocolchicine]	–	95.05%	–
COc1cc2c(c(OC)c1OC)-c1ccc(SC)c(=O)cc1C(NC(=O)CSc1cc(C)c(Cl)cc1Cl)CC2 (stereo not shown) [Compound 000831]	–	89.15%	–
COc1cc2c(c(OC)c1OC)-c1ccc(SC)c(=O)cc1C(NC(=O)C(C)ON=C1c3cc([N+](=O)[O-])cc([N+](=O)[O-])c3-c3c1cc([N+](=O)[O-])cc3[N+](=O)[O-])CC2 (stereo not drawn) [Compound 000913, N-Deacetyl-N-[(+)-2-(2,4,5,7-tetranitro-9-fluorenylideneaminooxy)propionyl]thiocolchicine]	90.91%	1.00%	–
COc1cccc(N2CCN(CCC(=O)NC3CCc4cc(OC)c(OC)c(OC)c4-c4ccc(SC)c(=O)cc43)CC2)c1 (stereo not shown) [Compound 001225, N-Deacetyl-N-(4-[3-methoxyphenyl]-piperazinylpropionyl)thiocolchicine]	80.5%	0%	–
COc1cc2c(c(OC)c1OC)-c1ccc(SC)c(=O)cc1[C@@H](NC(=O)COc1ccc([N+](=O)[O-])cc1)CC2 [Compound 001127, N-Deacetyl-N-(4-nitrophenoxyacetyl)thiocolchicine]	75.37%	0%	–
COc1cccc(OCC(=O)NC2CCc3cc(OC)c(OC)c(OC)c3-c3ccc(SC)c(=O)cc32)c1 (stereo not shown) [Compound 001024, N-Deacetyl-N-(3-methoxyphenoxyacetyl)thiocolchicine]	98.0%	0%	–
COc1cc2c(c(OC)c1OC)-c1ccc(SC)c(=O)cc1C(NC(=O)CSc1ccncc1)CC2 (stereo not shown) [Compound 000922, N-Deacetyl-N-(4-pyridylthioacetyl)thiocolchicine]	0%	0%	100%
CCC(=C(CC)c1ccc(OCC(=O)NC2CCc3cc(OC)c(OC)c(OC)c3-c3ccc(SC)c(=O)cc32)cc1)c1ccc(OCC(=O)NC2CCc3cc(OC)c(OC)c(OC)c3-c3ccc(SC)c(=O)cc32)cc1 (stereo not shown) [Compound 000828, Dimer of N-Deacetylthiocolchicine]	–	93.81%	–
COc1cc2c(c(OC)c1OC)-c1ccc(SC)c(=O)cc1C(NC(=O)CCC(=O)c1ccc(Br)cc1)CC2 (stereo not shown) [Compound 000926, N-Deacetyl-N-(3-[4-bromobenzoyl]propionyl)thiocolchicine]	100%	0%	–
COc1cc2c(c(OC)c1OC)-c1ccc(SC)c(=O)cc1C(NC(=O)CSc1ccc(Cl)cc1)CC2 (stereo not shown) [Compound 000921, N-Deacetyl-N-[(4-chlorophenylthio)acetyl]thiocoichicine]	96.18%	0%	–
